# PubChem BioAssay (NCI)
#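 Assay format: 96-well plates, 48-hour exposure. TGI: total growth inhibition.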
# Columns and labels:
# Assay in all cases: NCI tumour cell line growth inhibition, 48 h
# [1] = test system: SW-620 colon
# [2] = test system: HCT-15 colon
# [3] = test system: K-562 leukemia
# [4] = test system: M14 melanoma
# [5] = test system: OVCAR-5 ovarian
# [6] = test system: MALME-3M melanoma
# [7] = test system: KM12 colon
# [8] = test system: LOX IMVI melanoma
# [9] = test system: PC-3 prostate
# [10] = test system: MDA-N
# [11] = test system: UO-31 renal
# [12] = test system: SR leukemia
# [13] = test system: SK-OV-3 ovarian
# [14] = test system: COLO 205 colon
# [15] = test system: HT29 colon
# [16] = test system: SNB-19 CNS
# [17] = test system: HCC-2998 colon
# [18] = test system: SF-295 CNS
# [19] = test system: BT-549 breast
# [20] = test system: SF-268 CNS
Structure (SMILES),TGI [1],TGI [2],TGI [3],TGI [4],TGI [5],TGI [6],TGI [7],TGI [8],TGI [9],TGI [10],TGI [11],TGI [12],TGI [13],TGI [14],TGI [15],TGI [16],TGI [17],TGI [18],TGI [19],TGI [20]
NNC(=Nc1ccccc1)SCc1ccccc1,> 100 µM,> 100 µM,> 100 µM,> 100 µM,> 100 µM,> 100 µM,> 100 µM,> 100 µM,> 100 µM,> 100 µM,> 100 µM,> 100 µM,> 100 µM,> 100 µM,> 100 µM,> 100 µM,> 100 µM,> 100 µM,> 100 µM,
O=c1c2ncn(C3CCCCO3)c2n(-c2ccccc2)c(=S)n1-c1ccccc1 (centres undefined),> 100 µM,> 100 µM,> 100 µM,> 100 µM,> 76.5 µM,> 100 µM,> 100 µM,> 100 µM,> 100 µM,> 100 µM,> 71.4 µM,> 100 µM,61 µM,> 100 µM,> 100 µM,> 69.4 µM,> 100 µM,51.7 µM,72.1 µM,> 92.2 µM
O=c1[nH]c2nccnc2c2c([N+](=O)[O-])cccc12,> 100 µM,> 100 µM,> 100 µM,> 100 µM,> 100 µM,> 100 µM,> 100 µM,> 100 µM,> 100 µM,> 100 µM,> 100 µM,> 100 µM,> 100 µM,> 100 µM,> 100 µM,> 100 µM,> 100 µM,> 100 µM,> 100 µM,> 100 µM
COc1ccc2c(c1)C1Oc3ccccc3CC1(O)CO2 (centres undefined),> 100 µM,> 100 µM,> 100 µM,> 100 µM,> 100 µM,> 100 µM,> 100 µM,> 100 µM,> 100 µM,> 100 µM,> 100 µM,> 100 µM,> 100 µM,> 100 µM,> 100 µM,,> 100 µM,> 100 µM,> 100 µM,> 100 µM
O=c1[nH]nc(-c2ccc([N+](=O)[O-])cc2)n1/N=C/c1ccc([N+](=O)[O-])cc1,> 100 µM,> 100 µM,> 100 µM,> 100 µM,> 100 µM,> 100 µM,> 100 µM,34.4 µM,> 100 µM,> 100 µM,> 100 µM,> 100 µM,> 100 µM,> 100 µM,> 100 µM,> 100 µM,> 100 µM,> 100 µM,> 100 µM,> 100 µM
CC(=O)OC(CC(C)C)P1(=O)N(CC(C)(C)C)[C@@H]2CCCC[C@H]2N1CC(C)(C)C (some centres undefined),29 µM,23.4 µM,23.9 µM,19.8 µM,22.9 µM,22.8 µM,24.1 µM,25 µM,13.6 µM,21.3 µM,21.2 µM,30.4 µM,30.7 µM,18.2 µM,19 µM,21.9 µM,18.3 µM,20.4 µM,29.2 µM,29.3 µM
Cc1ccc(C(=O)Cc2nc3ncccc3[nH]c2=O)cc1,> 100 µM,> 100 µM,> 100 µM,> 100 µM,> 100 µM,72.3 µM,> 100 µM,,> 100 µM,> 100 µM,> 100 µM,> 100 µM,45.4 µM,> 100 µM,> 100 µM,> 100 µM,> 100 µM,> 100 µM,92.5 µM,99.7 µM
O=C(CCCC1Cc2ccccc2C1=O)c1ccccc1 (centres undefined),> 100 µM,> 100 µM,> 100 µM,> 100 µM,> 100 µM,> 100 µM,> 100 µM,> 100 µM,> 100 µM,> 100 µM,> 100 µM,> 100 µM,> 100 µM,> 100 µM,> 100 µM,> 100 µM,> 100 µM,> 100 µM,> 100 µM,> 100 µM
OCCN1CN(c2nc(N3CN(CCO)C3)nc(N3CN(CCO)C3)n2)C1,> 100 µM,46.7 µM,87.3 µM,34.3 µM,60.2 µM,39.3 µM,47.9 µM,33.5 µM,49.8 µM,32.3 µM,56.1 µM,> 100 µM,,59.2 µM,71.4 µM,49.6 µM,41.7 µM,,70.8 µM,48.3 µM
O=C(O)C(F)(F)C(F)(F)C(F)(F)C(F)(F)C(=O)O,> 100 µM,> 100 µM,> 100 µM,> 100 µM,> 100 µM,> 100 µM,> 100 µM,> 100 µM,> 100 µM,> 100 µM,> 100 µM,> 100 µM,> 100 µM,> 100 µM,> 100 µM,> 100 µM,> 100 µM,> 100 µM,> 100 µM,> 100 µM
Cc1c(C#N)c2nnn(-c3ccc([N+](=O)[O-])cc3)c(=O)n2c1-c1ccccc1,51 µM,24.4 µM,30.6 µM,25 µM,40.1 µM,30.7 µM,20.5 µM,22 µM,14.7 µM,31.3 µM,25.5 µM,46.3 µM,79.4 µM,22.9 µM,23.7 µM,36.7 µM,20 µM,14 µM,31.8 µM,32.4 µM
CN(C)c1ccc(/C=N/n2c(-c3ccccc3)nc3ccccc3c2=O)cc1,> 100 µM,> 100 µM,,> 100 µM,> 100 µM,> 100 µM,> 100 µM,> 100 µM,> 100 µM,> 100 µM,,83.6 µM,> 100 µM,> 100 µM,> 100 µM,> 100 µM,> 100 µM,> 100 µM,> 100 µM,> 100 µM
Cc1c(C)c2c(c(N)c1C#N)C(=O)N(OS(=O)(=O)c1ccccc1)C2=O,47.2 µM,46 µM,43.4 µM,41.6 µM,> 100 µM,31.8 µM,> 100 µM,55.1 µM,> 100 µM,80.8 µM,> 100 µM,> 100 µM,,45.3 µM,,> 100 µM,> 100 µM,> 100 µM,39.7 µM,> 100 µM
CC1=NC2(CCCCC2)N(Cl)C(=O)C1SC#N (centres undefined),62.6 µM,66.6 µM,41.4 µM,34.4 µM,38.6 µM,41.9 µM,42.6 µM,35.4 µM,32.1 µM,32.2 µM,32.9 µM,> 100 µM,,> 100 µM,46.4 µM,49.9 µM,42 µM,36.1 µM,28.5 µM,33.5 µM
O=C1C(Cl)=C(Oc2ccc([N+](=O)[O-])cc2)C(=O)c2c(O)ccc(O)c21,> 80.9 µM,> 67.6 µM,40.3 µM,> 69.2 µM,> 100 µM,40.1 µM,> 100 µM,,> 100 µM,> 31.6 µM,> 100 µM,16.1 µM,> 100 µM,42.3 µM,> 83.1 µM,> 100 µM,> 100 µM,> 100 µM,> 100 µM,> 100 µM
C[C@]12CC[C@H](O)CC1=CC[C@@H]1C2CC[C@]2(C)c3nn(-c4ccc(F)cc4)nc3CC12 (some centres undefined),> 100 µM,,> 100 µM,> 100 µM,> 100 µM,> 100 µM,> 100 µM,,> 100 µM,> 100 µM,> 100 µM,> 100 µM,> 100 µM,> 100 µM,73 µM,> 100 µM,72.7 µM,> 100 µM,> 100 µM,> 100 µM
CSc1nc2c(c(=O)n1C)N=C(c1ccc(Cl)cc1)CC(c1ccccc1)N2 (centres undefined),> 100 µM,,53.2 µM,34.7 µM,> 100 µM,36.4 µM,31.7 µM,54.3 µM,> 100 µM,30.3 µM,> 100 µM,> 100 µM,70.3 µM,39.2 µM,31.6 µM,> 100 µM,53.1 µM,53.1 µM,56.1 µM,
CC(=O)c1cc2c(s1)C(=O)c1scc(C(C)=O)c1C2=O,,1.07 µM,3.54 µM,,4.14 µM,1.9 µM,3.39 µM,0.224 µM,1.53 µM,0.358 µM,1.31 µM,0.335 µM,4.86 µM,3.54 µM,4.2 µM,2.42 µM,3.58 µM,2.15 µM,2.68 µM,1.5 µM
Cc1ccccc1C(=O)C#Cc1cn(C2CC(O)C(CO)O2)c(=O)[nH]c1=O (centres undefined),> 100 µM,> 100 µM,> 100 µM,> 100 µM,,35.1 µM,> 100 µM,,> 100 µM,> 100 µM,> 100 µM,> 100 µM,> 100 µM,> 100 µM,> 100 µM,> 100 µM,> 100 µM,> 100 µM,> 100 µM,> 100 µM
O=C1C(=Cc2ccco2)C(=O)C2CCCCC12 (centres undefined),> 100 µM,> 100 µM,73.2 µM,> 100 µM,> 100 µM,> 100 µM,> 100 µM,> 100 µM,> 100 µM,> 100 µM,,> 100 µM,> 100 µM,> 100 µM,> 100 µM,> 100 µM,> 100 µM,> 100 µM,> 100 µM,> 100 µM
O=C1c2cc([N+](=O)[O-])cnc2S(=O)(=O)N1c1ccc(Br)cc1,> 100 µM,> 100 µM,,> 100 µM,> 100 µM,> 100 µM,> 100 µM,> 100 µM,> 100 µM,> 100 µM,> 100 µM,> 100 µM,> 100 µM,> 100 µM,> 100 µM,> 100 µM,> 100 µM,> 100 µM,> 100 µM,> 100 µM
CCOP(=O)(CC1CC(O)(CNc2cc(Cl)nc(N)n2)C1)OCC (centres undefined),> 100 µM,> 100 µM,> 100 µM,,> 100 µM,> 100 µM,> 100 µM,> 100 µM,> 100 µM,> 100 µM,> 100 µM,> 100 µM,> 100 µM,> 100 µM,> 100 µM,,> 100 µM,> 100 µM,> 100 µM,> 100 µM
CC(/C=N/N(C)C1=NCCCCN1)=N/N(C)C1=NCCCCN1,> 100 µM,> 100 µM,> 100 µM,,> 100 µM,> 100 µM,> 100 µM,> 100 µM,> 100 µM,> 100 µM,> 100 µM,> 100 µM,> 100 µM,> 100 µM,> 100 µM,> 100 µM,> 100 µM,> 100 µM,> 100 µM,> 100 µM
Nc1nc2cc(CNc3ccc(C(=O)O)cc3)ccc2nc1-c1ccccc1,> 100 µM,> 100 µM,> 100 µM,> 100 µM,> 100 µM,> 100 µM,,> 100 µM,> 100 µM,> 100 µM,> 100 µM,> 100 µM,> 100 µM,> 100 µM,> 100 µM,> 100 µM,> 100 µM,> 100 µM,> 100 µM,> 100 µM
O=C1C=C(N2CCCC2)C(=O)c2c(O)ccc(O)c21,> 10 µM,> 10 µM,> 10 µM,> 10 µM,> 10 µM,> 10 µM,> 10 µM,> 10 µM,> 10 µM,> 10 µM,> 10 µM,> 1 µM,> 10 µM,,> 10 µM,> 10 µM,> 10 µM,> 10 µM,> 10 µM,> 10 µM
